SMILES strings stand for the structures.

Type in all cases: cell-based, human
The subject of assay [1] is Pgp+ (DiOC2(3)-dye effluxing) T cells. Briefly: DiOC2(3) dye efflux flow cytometry of inhibitor-treated T cells. The following applies: for p2: pgp+ from Live cells: treatment for 13 days, IL2 + CD3 and CD28 antibodies. The protocol: (§1) The use of P-glycoprotein (Pgp)-mediated efflux of DiOC2(3) to isolate stem like T cells for adoptive cellular therapy has been described in application no. […] In the following examples, DiOC2(3) staining was used to study the effect of different inhibitors on generation of stem like T cells.
(§2) DAY 0: Blood was obtained from unidentified donor. After RBC lysis, PBMC were collected using Ficoll-Hypaque separation. […] T cells were cultured in three different conditions: • 1. XVIVO 15 medium (Lonza) with IL2 50 IU/ml, CD3 antibody (30 ng/ml) and CD28 antibody (30 ng/ml). • 2. XVIVO 15 medium (Lonza) with CD3 antibody (30 ng/ml) and CD28 antibody (30 ng/ml). • 3. XVIVO 15 medium (Lonza) with IL2 50 IU/ml DAY 1: Cells were plated in a 6-well plate at a density of 1 million cells in 2 ml/of media (as described above) and treated with different inhibitors
(§3) The cell growth medium was changed in 6-well plates and fresh drugs were added at same concentration for one more week.
(§4) […] (DAY 11): Culture medium was changed and fresh drugs were added in 6-well plates.
(§5) Subsequently, cells were washed with RPMI medium and dye was effluxed at 37° C. for 90 min. Cells were washed with […], stained with CD62L-APC (5 μl/100 μl/sample) at 4° C. for 1 h, washed twice with PBS+1% FBS and analyzed on flow cytometer to check if these drugs treatment leads to increase in Pgp+/CD62L positive population.
(§6) Day 0: Blood was obtained from unidentified donor. After RBC lysis, PBMC were collected using Ficoll-Hypaque separation. 200 million T cells were isolated from PBMCs using CD3 microbeads. T cells were cultured overnight in XVIVO 15 medium (Lonza) with IL2 (50 IU/ml), 30 ng/ml of CD3 and CD28 antibodies
(§7) Day 1: Cells were plated in 24-well plates at a density of 0.3 million cells/ml in each well and treated with different drugs.
(§8) On day 7, culture medium was replaced with fresh medium with fresh drugs.
(§9) On day 13, culture medium was replaced with fresh medium and fresh drugs. Half of the cells were transferred to 6-well plates.
(§10) Day 14: An aliquot of cells with all the treatments listed above (for 13 days) was used to stain the cells with DiOC2(3) (60 ng/ml in RPMI medium) at 4° C. for 40 min, washed with RPMI medium, DiOC2(3) dye was effluxed at 37° C. for 90 min, washed with PBS+1% FBS, stained with CD62L-APC antibody. CD62L is a marker for resting T cells. (5 μl/100 μl/sample) at 4° C. for 1 h, washed twice with PBS+1% FBS and analyzed on flow cytometer to check if these drugs are affecting the dye-effluxing or Pgp+ (i.e., DiOC2(3)-dull) T-cell population.

The test system of assay [2] is Pgp+ (DiOC2(3)-dye effluxing cells) and CD62L+ T cells. Briefly: DiOC2(3) dye efflux plus CD62L-APC staining, flow cytometry of inhibitor-treated T cells. Particulars: for p5: double +ve pgp+ and CD62L-APC+ from Live cells: treatment for 13 days, IL2 + CD3 and CD28 antibodies. The protocol:
as §1, §2, §3, §4, §5, §6, §7, §8, §9, §10

Assay [3] deals with CD8+CD45RA+CCR7+CD62L+ T cells. Briefly: Flow cytometry for CD8, CD45RA, CCR7 and CD62L on inhibitor-treated T cells. The following applies: for GATE P4 CD8(PerCP)+, CD45RA(FITC)+, CCR7 (PE)+, CD62L(APC): cells cultured for 14 days; for % of CD62L+CCR7+ double positive cells out of CD45RA+ cells in CD8+ T cell population: 13 days of treatment. The method, then: as §2
(§11) A second aliquot of the cells cultured for 13 days with all the treatments listed above (1-21) was washed with PBS+1% FBS, stained with CD8-PerCP, CD45RA-FITC, CCR7-PE and CD62L-APC ([…] for each of 4 antibodies) at 4° C. for 1 h, washed twice with […] and analyzed on flow cytometer to check if these drugs are enriching T stem cells showing surface expression of CD8+CD45RA+CCR7+CD62L+.
as §6, §7, §8, §9
(§12) A second aliquot of the cells cultured for 14 days with all the treatments listed above was washed with PBS+1% FBS, stained with CD8-PerCP, CD45RA-FITC, CCR7-PE and CD62L-APC (5 ul/100 ul/sample for each of 4 antibodies) at 4° C. for 1 h, washed twice with PBS+1% FBS and analyzed on flow cytometer to check if these drugs are enriching for T cells showing surface expression of CD8+CD45RA+CCR7+CD62L+.

Assay [4] has as its system CD45RA+CCR7+CD62L+ T cells. Briefly: Flow cytometry for CD45RA, CCR7 and CD62L on inhibitor-treated T cells (all T cells). The following applies: for GATE P6 CD45RA(FITC)+, CCR7 (PE)+, CD62L(APC): cells cultured for 14 days; for % of CD62L+CCR7+ double positive cells out of CD45RA+ cells in live T cell population: 13 days treatment. The protocol:
as §2, §11, §6, §7, §8, §9, §12

Setting [5] is: CD3-CD28-IL2 culture, inhibitor 10 nM.
[6] abbreviates: CD3-CD28-IL2 culture, inhibitor 100 nM.
Setting [7] is: CD3-CD28-IL2 culture, inhibitor 200 nM.
Where [8] appears, read: CD3-CD28 culture, inhibitor 10 nM.
Setting [9] is: CD3-CD28 culture, inhibitor 100 nM.
Setting [10] is: CD3-CD28 culture, inhibitor 200 nM.
Where [11] appears, read: CD3-IL2 culture, inhibitor 10 nM.
[12] abbreviates: CD3-IL2 culture, inhibitor 100 nM.
Where [13] appears, read: CD3-IL2 culture, inhibitor 200 nM.

In the case of `O=C1CN=C(c2ccc[nH]2)c2cc(Cl)ccc2N1` [R05335], the “p2: pgp+ from Live cells” value in assay [1] (100 nM) is given as 14.71; in assay [1] (500 nM) it was 16.22. Moreover, the “p5: double +ve pgp+ and CD62L-APC+ from Live cells” value (“p5: double +ve pgp+ and CD62L-APC+” below) was determined as 2.55 in assay [2] (100 nM) and 2.3 in assay [2] (500 nM). In assay [3] (500 nM), the “GATE P4 CD8(PerCP)+, CD45RA(FITC)+, CCR7 (PE)+, CD62L(APC)” value (from here on “GATE P4 CD8(PerCP)+, CD45RA(FITC)+, CCR7”) was determined as 79.9%. For the same molecule, in assay [4] (500 nM), the “GATE P6 CD45RA(FITC)+, CCR7 (PE)+, CD62L(APC)” value (“GATE P6 CD45RA(FITC)+, CCR7” for short) is listed as 69.95%.

Regarding `CCN(c1cc(-c2ccc(CN3CCOCC3)cc2)cc(C(=O)NCc2c(C)cc(C)[nH]c2=O)c1C)C1CCOCC1` [TAZE], the “p2: pgp+ from Live cells” value in assay [1] (100 nM) was found to be 42.9. Moreover, the “p5: double +ve pgp+ and CD62L-APC+” value in assay [2] (100 nM) is reported as 14.5. Further, the “GATE P4 CD8(PerCP)+, CD45RA(FITC)+, CCR7” value in assay [3] (100 nM) turned out to be 59.72%. Besides, in assay [4] (100 nM), the “GATE P6 CD45RA(FITC)+, CCR7” value is listed as 52.24%.

On to `CCN(c1cc(-c2ccc(CN3CCOCC3)cc2)cc(C(=O)NCc2c(C)cc(C)[nH]c2=O)c1C)C1CCOCC1` [Tazemetostat], for which the “% of Pgp+ cells out of live cells” value worked out at 21.86% in assay [1] (CD3-CD28-IL2 culture, inhibitor 10 nM, 6 days of treatment); 30.38% in assay [1] (CD3-CD28-IL2 culture, inhibitor 10 nM, 13 days of treatment); 27.17% in assay [1] (CD3-CD28-IL2 culture, inhibitor 100 nM, 6 days of treatment); 38.45% in assay [1] (CD3-CD28-IL2 culture, inhibitor 100 nM, 13 days of treatment); 24.85% in assay [1] (CD3-CD28-IL2 culture, inhibitor 200 nM, 6 days of treatment); 41.22% in assay [1] (CD3-CD28-IL2 culture, inhibitor 200 nM, 13 days of treatment). The “% of Pgp+ cells out of live cells” value is 39.28% in assay [1] (CD3-CD28 culture, inhibitor 10 nM, 6 days of treatment); 12.41% in assay [1] (CD3-CD28 culture, inhibitor 10 nM, 13 days of treatment); 40.50% in assay [1] (CD3-CD28 culture, inhibitor 100 nM, 6 days of treatment); 5.19% in assay [1] (CD3-CD28 culture, inhibitor 100 nM, 13 days of treatment); 43.11% in assay [1] (CD3-CD28 culture, inhibitor 200 nM, 6 days of treatment); 11.82% in assay [1] (CD3-CD28 culture, inhibitor 200 nM, 13 days of treatment). Also, the “% of Pgp+ cells out of live cells” value in assay [1] (CD3-IL2 culture, inhibitor 10 nM, 6 days of treatment) was 24.77%; in assay [1] (CD3-IL2 culture, inhibitor 10 nM, 13 days of treatment), 28.61%; in assay [1] (CD3-IL2 culture, inhibitor 100 nM, 6 days of treatment), 25.31%; in assay [1] (CD3-IL2 culture, inhibitor 100 nM, 13 days of treatment), 16.74%; in assay [1] (CD3-IL2 culture, inhibitor 200 nM, 6 days of treatment), 25.89%; in assay [1] (CD3-IL2 culture, inhibitor 200 nM, 13 days of treatment) it was 28.06%. In addition, the “percentage of Pgp+ cells” value in assay [1] (culture with CD3 antibody, CD28 antibody and IL2, 6 days of treatment, 10 nM) was 27.17%. For the same molecule, the “% of Pgp+ CD62L+cells out of live cells” value in assay [2] (CD3-CD28-IL2 culture, inhibitor 10 nM, 6 days treatment) was 8.42%; in assay [2] (CD3-CD28-IL2 culture, inhibitor 10 nM, 13 days treatment) it was 8.03%; in assay [2] (CD3-CD28-IL2 culture, inhibitor 100 nM, 6 days treatment), 13.16%; in assay [2] (CD3-CD28-IL2 culture, inhibitor 100 nM, 13 days treatment), 12.57%; in assay [2] (CD3-CD28-IL2 culture, inhibitor 200 nM, 6 days treatment), 11.30%; in assay [2] (CD3-CD28-IL2 culture, inhibitor 200 nM, 13 days treatment), 14.25%. Besides, the “% of Pgp+ CD62L+cells out of live cells” value in assay [2] (CD3-CD28 culture, inhibitor 10 nM, 6 days treatment) was found to be 19.36%; in assay [2] (CD3-CD28 culture, inhibitor 10 nM, 13 days treatment) it was 2.95%; in assay [2] (CD3-CD28 culture, inhibitor 100 nM, 6 days treatment) it was 18.38%; in assay [2] (CD3-CD28 culture, inhibitor 100 nM, 13 days treatment), 1.18%; in assay [2] (CD3-CD28 culture, inhibitor 200 nM, 6 days treatment), 20.94%; in assay [2] (CD3-CD28 culture, inhibitor 200 nM, 13 days treatment), 2.66%. The “% of Pgp+ CD62L+cells out of live cells” value in assay [2] (CD3-IL2 culture, inhibitor 10 nM, 6 days treatment) is recorded as 8.76%; in assay [2] (CD3-IL2 culture, inhibitor 10 nM, 13 days treatment) it was 9.87%; in assay [2] (CD3-IL2 culture, inhibitor 100 nM, 6 days treatment), 10.11%; in assay [2] (CD3-IL2 culture, inhibitor 100 nM, 13 days treatment), 4.31%; in assay [2] (CD3-IL2 culture, inhibitor 200 nM, 6 days treatment) it was 11.97%; in assay [2] (CD3-IL2 culture, inhibitor 200 nM, 13 days treatment), 9.08%. In assay [2] (culture with CD3 antibody, CD28 antibody and IL2, 6 days of treatment, 100 nM), the “percentage of Pgp+CD62L+ cells” value is 13.168%. In addition, the “% of CD62L+CCR7+ double positive cells out of CD45RA+ cells in CD8+ T cell population” value in assay [3] (setting [5]) was determined as 62.73%; in assay [3] (setting [6]), 83.53%; in assay [3] (setting [7]) it was 80.78%; in assay [3] (setting [8]), 87.00%; in assay [3] (setting [9]), 88.26%; in assay [3] (setting [10]) it was 88.37%. Further, the “% of CD62L+CCR7+ double positive cells out of CD45RA+ cells in CD8+ T cell population” value in assay [3] (setting [11]) turned out to be 82.23%; in assay [3] (setting [12]), 79.86%; in assay [3] (setting [13]) it was 77.35%. Further, the “% of CD62L+CCR7+ double positive cells out of CD45RA+ cells in live T cell population” value is given as 50.85% in assay [4] (setting [5]); 67.51% in assay [4] (setting [6]); 66.36% in assay [4] (setting [7]); 77.81% in assay [4] (setting [8]); 79.62% in assay [4] (setting [9]); 78.45% in assay [4] (setting [10]). Also, the figures for the “% of CD62L+CCR7+ double positive cells out of CD45RA+ cells in live T cell population” value in assay [4] (setting [11]), in assay [4] (setting [12]) and in assay [4] (setting [13]) were 67.30%, 63.89% and 59.08%, respectively.

On to `COc1cc2c(NC3CCN(C(C)C)CC3)nc(N3CCC(F)(F)CC3)nc2cc1OCCCN1CCCC1` [UNC0642], for which the “p2: pgp+ from Live cells” value in assay [1] (10 nM) stood at 22.03; in assay [1] (100 nM), 32.51. Besides, the “p5: double +ve pgp+ and CD62L-APC+” value in assay [2] (10 nM) was 4.46; in assay [2] (100 nM) it was 4.81. Besides, the “GATE P4 CD8(PerCP)+, CD45RA(FITC)+, CCR7” value in assay [3] (10 nM) was 71.62%; in assay [3] (100 nM), 82.37%. The “GATE P6 CD45RA(FITC)+, CCR7” value amounted to 63.95% in assay [4] (10 nM) and 75.75% in assay [4] (100 nM).
